Experiments:
MCF-7 cells = assay: MCF-7 cell proliferation assay (estradiol stimulated versus unstimulated, MTT); assay type: cell-based, human; settings: estradiol stimulated versus unstimulated MCF-7 cells, FIG. 1
Protocol: Those skilled in the art will appreciate that several acceptable estrogen receptor-binding assays are known and available for initial screening of the compounds of the present invention. The initial screen chosen for detecting anti-estrogenic/estrogenic activity was a human cell line assay, namely the MCF-7 cell proliferation assay. MCF-7 cells are estrogen-receptor positive (ER+) cancer cells that respond to estradiol stimulation. Anti-estrogenic activity is measured in terms of a test article's ability to inhibit estradiol stimulated proliferation, implying an antagonistic action on the estrogen receptor and estrogenic activity can be inferred from increased proliferation. The following testing procedure was used.
MCF-7 cells were maintained in a RPMI medium, free of phenol red, and supplemented with 5% charcoal-stripped foetal calf serum, hydrocortisone, bovine insulin, penicillin and streptomycin until they reached 70% confluence. […] Cell survival was evaluated after 3-6 days, by replacing the culture media with 150 μl of fresh medium containing 10 mM 4-(2-hydroxyethyl)-1-piperazineethamsulfonic acid buffer (pH 7.4) followed by the addition of 50 μl of 2.5 mg/ml of 3-(4,5-dimethylthiazo-2-yl)-2,5-diphenyltetrazolium bromide (MTT). […] Plates were shaken for 15 minutes and the absorbance was determined at 570 nm with a microplate reader (BIORAD, model 450). […]

[1] = target: human recombinant estrogen receptor beta (Homo sapiens, UniProt Q92731); assay: Estrogen receptor beta binding assay ([3H] Estradiol displacement); settings: displacement of 0.5 nM [3H] Estradiol, 7.5 ng receptor protein, 2 hours at 25° C.; read-out: IC50 Value, Estrogen Receptor Subtype Beta
[2] = target: T1, human recombinant estrogen receptor alpha (Homo sapiens, UniProt P03372); assay: Estrogen receptor alpha binding assay ([3H] Estradiol displacement); settings: IC50 Value, Estrogen Receptor Subtype Alpha, displacement of 0.5 nM [3H] Estradiol, 4.5 ng receptor protein, 2 hours at 25° C.
T1 sequence (P03372 1-595): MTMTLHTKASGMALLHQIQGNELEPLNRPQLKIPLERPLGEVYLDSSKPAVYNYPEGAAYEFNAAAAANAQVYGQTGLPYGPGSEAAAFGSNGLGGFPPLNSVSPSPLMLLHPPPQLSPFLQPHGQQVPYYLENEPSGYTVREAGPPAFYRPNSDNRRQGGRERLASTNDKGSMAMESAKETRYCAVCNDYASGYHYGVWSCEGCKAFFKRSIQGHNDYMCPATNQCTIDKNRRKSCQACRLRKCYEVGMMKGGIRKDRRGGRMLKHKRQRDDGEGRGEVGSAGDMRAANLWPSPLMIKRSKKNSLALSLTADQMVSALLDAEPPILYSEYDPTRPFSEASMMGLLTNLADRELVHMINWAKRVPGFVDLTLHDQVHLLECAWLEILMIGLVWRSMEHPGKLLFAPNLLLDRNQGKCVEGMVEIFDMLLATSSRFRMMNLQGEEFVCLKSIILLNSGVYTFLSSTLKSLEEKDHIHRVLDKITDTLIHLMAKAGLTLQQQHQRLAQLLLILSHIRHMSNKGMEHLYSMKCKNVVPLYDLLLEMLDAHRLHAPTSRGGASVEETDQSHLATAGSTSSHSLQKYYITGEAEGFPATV
Protocol: The stable expression of these individual receptor subtypes in cells provides a rapid and accurate means of quantifying the direct interaction of a test article with the estrogen binding sites. Briefly, this assay is conducted in 96 well plates where a series of concentrations of the test article are used to displace tritiated estradiol from either estrogen receptor alpha or estrogen receptor beta bearing cell membranes, under equilibrium conditions. […] This measurement is the primary test for mediation of the estrogen receptor and can also be used to measure the relative selectivity of the test article for either the alpha or beta subtype.
The alpha subtype assay measures the binding of [^3H] Estradiol to the human recombinant estrogen receptor. […] Membranes are filtered and washed 3 times, and the filters are counted to determine [^3H] Estradiol specifically bound. […] The measurement of the displaced tritiated estradiol allows the determination of an IC50 value, a direct measure of the test articles' interaction with the estrogen receptor alpha.

Sequence of human recombinant estrogen receptor beta (Q92731 whole entry): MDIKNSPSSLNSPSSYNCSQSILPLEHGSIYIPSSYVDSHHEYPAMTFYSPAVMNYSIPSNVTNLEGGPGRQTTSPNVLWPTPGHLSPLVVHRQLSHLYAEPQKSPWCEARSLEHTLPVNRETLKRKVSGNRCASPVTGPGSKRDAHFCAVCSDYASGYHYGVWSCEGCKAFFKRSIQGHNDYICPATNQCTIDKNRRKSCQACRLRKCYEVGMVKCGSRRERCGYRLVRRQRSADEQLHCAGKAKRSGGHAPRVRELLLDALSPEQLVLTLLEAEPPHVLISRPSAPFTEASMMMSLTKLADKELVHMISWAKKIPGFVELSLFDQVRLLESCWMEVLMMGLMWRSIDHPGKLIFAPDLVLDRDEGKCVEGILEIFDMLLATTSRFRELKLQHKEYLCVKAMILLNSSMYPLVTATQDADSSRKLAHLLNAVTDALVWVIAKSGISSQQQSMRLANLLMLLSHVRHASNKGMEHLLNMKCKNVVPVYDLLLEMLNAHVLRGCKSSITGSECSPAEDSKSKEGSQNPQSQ

- IC50 [1]: 75 nM
- IC50 [2]: 5.54 nM
SMILES: C/C(=C(/c1ccc(O)cc1)c1cccc2cc(O)ccc12)c1ccc(OCCN2CCCC2)cc1 [Formula II, (E)-5-[1-(4-hydroxyphenyl)-2-[4-(2-pyrrolidin-1-yl-ethoxy)-phenyl]-propenyl]-naphthalen-2-ol]
- effect on estradiol stimulated proliferation of MCF-7 cells (shift in dose-response curve) (MCF-7 cells): antagonizing the effect of estradiol
